Laboratory results published in BigSolDB 2.1.

CS(=O)(=O)c1ccc([C@@H](O)[C@@H](CF)NC(=O)C(Cl)Cl)cc1
Conditions | solubility (mole fraction)
in THF, 279.65 K | 0.0293
in THF, 284.55 K | 0.0317
in THF, 289.35 K | 0.0342
in THF, 294.5 K | 0.0374
in THF, 297.65 K | 0.0398
in acetone, 279.25 K | 0.0261
in acetone, 284.35 K | 0.0294
in acetone, 289.1 K | 0.0327
in acetone, 294.45 K | 0.0368
in acetone, 297.75 K | 0.0396
in ethanol, 278.55 K | 0.00126
in ethanol, 283.45 K | 0.00153
in ethanol, 288.8 K | 0.00212
in ethanol, 293.7 K | 0.00259
in ethanol, 298.45 K | 0.00315
in methanol, 278.55 K | 0.00408
in methanol, 283.5 K | 0.00488
in methanol, 288.85 K | 0.00598
in methanol, 293.8 K | 0.00724
in methanol, 298.65 K | 0.00878
in n-propanol, 278.35 K | 0.0008
in n-propanol, 284.05 K | 0.00106
in n-propanol, 289 K | 0.00134
in n-propanol, 293.5 K | 0.00165
in n-propanol, 298.65 K | 0.00211
in water, 278.8 K | 2.48e-05
in water, 283.85 K | 2.86e-05
in water, 289.1 K | 3.62e-05
in water, 293.95 K | 4.64e-05
in water, 298.7 K | 5.49e-05
